The supplement of paper PMC10307832

Experiments:
Test in all cases: relative viability (nuclei count vs DMSO), 5 days (fraction); higher = more cells survive
IA-LM = system: IA-LM
Method in brief: (§1)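 Lung cancer cell lines in 1536-well plates were dosed by pin tool the day after seeding, either with one drug alone or with a fixed anchor-drug dose plus five library-drug doses (not always all listed) in √10 steps. After 5 days, cells were fixed and their nuclei stained in one step (final 0.05% Triton X-100, 1% formaldehyde, 1 ug/ml Hoechst), then counted on 4× images. Relative viability is the nuclei count in treated wells divided by that in vehicle wells. Values are medians of duplicate plates.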

NCI-H1299 = system: NCI-H1299
Method in brief: as §1

EKVX = system: EKVX
Method in brief: as §1

EBC-1 = system: EBC-1
Method in brief: as §1

Calu-6 = system: Calu-6
Method in brief: as §1

NCI-H1703 = system: NCI-H1703
Method in brief: as §1

ChaGo-K-1 = system: ChaGo-K-1
Method in brief: as §1

LC-2-ad = system: LC-2-ad
Method in brief: as §1

NCI-H1666 = system: NCI-H1666
Method in brief: as §1

A549 = system: A549
Method in brief: as §1

CCNC(=O)c1noc(-c2cc(C(C)C)c(O)cc2O)c1-c1ccc(CN2CCOCC2)cc1 [Luminespib] + CC(C)C[C@H](NC(=O)[C@H](Cc1ccccc1)NC(=O)c1cnccn1)B(O)O [Bortezomib] (partner 0.002 µM)
relative viability (IA-LM; first compound 0.002 µM): 0.819 | relative viability (IA-LM; first compound 0.006325 µM): 0.951 | relative viability (IA-LM; first compound 0.02 µM): 0.648 | relative viability (IA-LM; first compound 0.06325 µM): 0.067 | relative viability (IA-LM; first compound 0.2 µM): 0.0656 | relative viability (NCI-H1299; first compound 0.002 µM): 1.01 | relative viability (NCI-H1299; first compound 0.006325 µM): 0.999 | relative viability (NCI-H1299; first compound 0.02 µM): 1.04 | relative viability (NCI-H1299; first compound 0.06325 µM): 0.946 | relative viability (NCI-H1299; first compound 0.2 µM): 0.248 | relative viability (EKVX; first compound 0.002 µM): 0.998 | relative viability (EKVX; first compound 0.006325 µM): 1.03 | relative viability (EKVX; first compound 0.02 µM): 0.852 | relative viability (EKVX; first compound 0.06325 µM): 0.824 | relative viability (EKVX; first compound 0.2 µM): 0.0943 | relative viability (EBC-1; first compound 0.002 µM): 0.583 | relative viability (EBC-1; first compound 0.006325 µM): 0.541 | relative viability (EBC-1; first compound 0.02 µM): 0.318 | relative viability (EBC-1; first compound 0.06325 µM): 0.118 | relative viability (EBC-1; first compound 0.2 µM): 0.169 | relative viability (Calu-6; first compound 0.002 µM): 1.06 | relative viability (Calu-6; first compound 0.006325 µM): 0.883 | relative viability (Calu-6; first compound 0.02 µM): 1.21 | relative viability (Calu-6; first compound 0.06325 µM): 0.141 | relative viability (Calu-6; first compound 0.2 µM): 0.159 | relative viability (NCI-H1703; first compound 0.002 µM): 0.494 | relative viability (NCI-H1703; first compound 0.006325 µM): 0.415 | relative viability (NCI-H1703; first compound 0.02 µM): 0.224 | relative viability (NCI-H1703; first compound 0.06325 µM): 0.13 | relative viability (NCI-H1703; first compound 0.2 µM): 0.14 | relative viability (ChaGo-K-1; first compound 0.002 µM): 1.11 | relative viability (ChaGo-K-1; first compound 0.02 µM): 0.998 | relative viability (ChaGo-K-1; first compound 0.06325 µM): 0.528 | relative viability (ChaGo-K-1; first compound 0.2 µM): 0.294 | relative viability (LC-2-ad; first compound 0.002 µM): 0.733 | relative viability (LC-2-ad; first compound 0.006325 µM): 1.02 | relative viability (LC-2-ad; first compound 0.02 µM): 1.1 | relative viability (LC-2-ad; first compound 0.06325 µM): 0.133 | relative viability (LC-2-ad; first compound 0.2 µM): 0.0947 | relative viability (NCI-H1666; first compound 0.002 µM): 0.871 | relative viability (NCI-H1666; first compound 0.006325 µM): 0.86 | relative viability (NCI-H1666; first compound 0.02 µM): 0.74 | relative viability (NCI-H1666; first compound 0.06325 µM): 0.725 | relative viability (NCI-H1666; first compound 0.2 µM): 0.74

Cc1csc(=NC2CCCCC2)n1/N=C/c1ccc(O)c(O)c1O [MIM1] + CS(=O)(=O)CCNCc1ccc(-c2ccc3ncnc(Nc4ccc(OCc5cccc(F)c5)c(Cl)c4)c3c2)o1 [Lapatinib] (partner 2 µM)
relative viability (IA-LM; first compound 0.2 µM): 0.66 | relative viability (IA-LM; first compound 0.6325 µM): 0.869 | relative viability (IA-LM; first compound 2 µM): 0.716 | relative viability (IA-LM; first compound 6.325 µM): 0.375 | relative viability (IA-LM; first compound 20 µM): 0.151 | relative viability (A549; first compound 0.2 µM): 0.997 | relative viability (A549; first compound 0.6325 µM): 0.941 | relative viability (A549; first compound 2 µM): 1.03 | relative viability (A549; first compound 6.325 µM): 0.595 | relative viability (A549; first compound 20 µM): 0.222 | relative viability (NCI-H1299; first compound 0.2 µM): 0.978 | relative viability (NCI-H1299; first compound 0.6325 µM): 0.954 | relative viability (NCI-H1299; first compound 2 µM): 1 | relative viability (NCI-H1299; first compound 6.325 µM): 0.924 | relative viability (NCI-H1299; first compound 20 µM): 0.948 | relative viability (EKVX; first compound 0.2 µM): 0.186 | relative viability (EKVX; first compound 0.6325 µM): 0.221 | relative viability (EKVX; first compound 2 µM): 0.179 | relative viability (EKVX; first compound 6.325 µM): 0.177 | relative viability (EKVX; first compound 20 µM): 0.178 | relative viability (EBC-1; first compound 0.2 µM): 0.199 | relative viability (EBC-1; first compound 0.6325 µM): 0.279 | relative viability (EBC-1; first compound 2 µM): 0.212 | relative viability (EBC-1; first compound 6.325 µM): 0.209 | relative viability (EBC-1; first compound 20 µM): 0.205 | relative viability (Calu-6; first compound 0.2 µM): 1.08 | relative viability (Calu-6; first compound 0.6325 µM): 0.985 | relative viability (Calu-6; first compound 2 µM): 1.06 | relative viability (Calu-6; first compound 6.325 µM): 0.509 | relative viability (Calu-6; first compound 20 µM): 0.289 | relative viability (NCI-H1703; first compound 0.2 µM): 1.02 | relative viability (NCI-H1703; first compound 0.6325 µM): 1.23 | relative viability (NCI-H1703; first compound 2 µM): 0.906 | relative viability (NCI-H1703; first compound 6.325 µM): 0.166 | relative viability (NCI-H1703; first compound 20 µM): 0.202 | relative viability (LC-2-ad; first compound 0.2 µM): 0.938 | relative viability (LC-2-ad; first compound 0.6325 µM): 0.506 | relative viability (LC-2-ad; first compound 2 µM): 0.888 | relative viability (LC-2-ad; first compound 6.325 µM): 0.352 | relative viability (LC-2-ad; first compound 20 µM): 0.132 | relative viability (NCI-H1666; first compound 0.2 µM): 0.662 | relative viability (NCI-H1666; first compound 0.6325 µM): 0.577 | relative viability (NCI-H1666; first compound 2 µM): 0.507 | relative viability (NCI-H1666; first compound 6.325 µM): 0.362 | relative viability (NCI-H1666; first compound 20 µM): 0.206

CN1CCN(CCOc2cc(OC3CCOCC3)c3c(Nc4c(Cl)ccc5c4OCO5)ncnc3c2)CC1 [Saracatinib] + Cc1nc(NC(=O)N2CCC[C@H]2C(N)=O)sc1-c1ccnc(C(C)(C)C(F)(F)F)c1 [Alpelisib] (partner 2 µM)
relative viability (IA-LM; first compound 0.02 µM): 0.93 | relative viability (IA-LM; first compound 0.6325 µM): 1.44 | relative viability (IA-LM; first compound 2 µM): 0.958 | relative viability (A549; first compound 0.02 µM): 0.799 | relative viability (A549; first compound 0.2 µM): 0.718 | relative viability (A549; first compound 0.6325 µM): 0.861 | relative viability (A549; first compound 2 µM): 0.5 | relative viability (NCI-H1299; first compound 0.02 µM): 1.08 | relative viability (NCI-H1299; first compound 0.2 µM): 1.02 | relative viability (NCI-H1299; first compound 0.6325 µM): 1.14 | relative viability (NCI-H1299; first compound 2 µM): 1.1 | relative viability (EKVX; first compound 0.02 µM): 0.897 | relative viability (EKVX; first compound 0.2 µM): 0.551 | relative viability (EKVX; first compound 0.6325 µM): 0.671 | relative viability (EKVX; first compound 2 µM): 0.325 | relative viability (EBC-1; first compound 0.02 µM): 0.929 | relative viability (EBC-1; first compound 0.2 µM): 0.764 | relative viability (EBC-1; first compound 0.6325 µM): 0.898 | relative viability (EBC-1; first compound 2 µM): 0.906 | relative viability (Calu-6; first compound 0.02 µM): 1.02 | relative viability (Calu-6; first compound 0.2 µM): 0.683 | relative viability (Calu-6; first compound 0.6325 µM): 0.721 | relative viability (Calu-6; first compound 2 µM): 0.76 | relative viability (NCI-H1703; first compound 0.02 µM): 0.321 | relative viability (NCI-H1703; first compound 0.2 µM): 0.243 | relative viability (NCI-H1703; first compound 0.6325 µM): 0.189 | relative viability (NCI-H1703; first compound 2 µM): 0.184 | relative viability (LC-2-ad; first compound 0.02 µM): 0.903 | relative viability (LC-2-ad; first compound 0.6325 µM): 0.882 | relative viability (LC-2-ad; first compound 2 µM): 0.691 | relative viability (NCI-H1666; first compound 0.02 µM): 1.22 | relative viability (NCI-H1666; first compound 0.2 µM): 0.936 | relative viability (NCI-H1666; first compound 0.6325 µM): 1.2 | relative viability (NCI-H1666; first compound 2 µM): 0.837
